Test results taken from US11969425B2, “Inhibitor of indoleamine-2,3-dioxygenase (IDO)” (InventisBio LLC, priority 2016, dated 2024).

Tests used:
[1] = system: LPS-induced plasma kynurenine; assay: Inhibition of LPS induced plasma kynurenine in mice; assay type: in vivo; details: Balb/c mouse, 5 mg/kg LPS i.p. plus oral 30 mpk
Procedure: The effect of compounds described herein on the inhibition of lipopolysaccharide (LPS)-induced plasma kynurenine in mouse was determined. Female Balb/c mouse (˜20 g, obtained from Vital River Laboratory Animal Co. LTD) was treated with either vehicle control (saline) or 5 mg/kg LPS via intraperitoneal injection, followed by an oral dose of 30 mpk compound 9 within 5 minutes of LPS injection. Blood samples (500 uL) were collected into K2EDTA tube via retro-orbital puncture at 12 and 24 hrs (terminal bleeding) after treatment with LPS or LPS plus compound 9. For vehicle control group, plasma samples were collected at 24 hour post dose. Blood samples were put on ice after collection and centrifuged at 4° C. (2000 g, 5 minutes) immediately after collection to obtain the plasma. Plasma kynurenine level was determined by LC-MS/MS analysis. Each group contains 3 mice and mean plasma kynurenine level was plotted in FIG. 2.

[2] = system: kynurenine production in HeLa cells; assay: Inhibition of kynurenine production in HeLa cells; assay type: cell-based, human; details: Homo sapiens, HeLa, 48 h, HeLa cells, human IFN-γ 50 ng/mL, kynurenine read at 480 nm, read-out: IC50
[3] = system: pooled human hepatocytes; assay: Human hepatocyte clearance study; assay type: in vitro ADME; details: pooled human hepatocytes, 120 min
Procedure: (§1) The in vitro human hepatocyte clearance of compounds described here was studied using pooled human hepatocytes purchased from BioreclamationIVT (Westbury, NY, Cat #X008001, Lot #TQJ). The assay was conducted according to manufacture's instruction. Briefly, 10 mM stock solutions of test compounds and positive control (Verapamil) were prepared in 100% DMSO. Thawing media (50 mL) used in the study consists of: 31 mLWilliams E medium (GIBCO Cat #12551-032); 15 mL isotonic percoll (GE Healthcare Cat #17-0891-09); 500 uL 100XGlutaMax (GIBCO Cat #35050); 750 uL HEPES (GIBCO Cat #15630-080); 2.5 mL FBS (Corning Cat #35-076*CVR); 50 uL human insulin (GIBCO Cat #12585-014) and 5 uL dexamethasone (NICPBP). Incubation media is made of Williams E medium supplemented with 1xGlutaMax. Both thawing medium and incubation medium (serum-free) were placed in a 37° C. water bath for at least 15 minutes prior to use. Compound stock solutions were diluted to 100 μM by combining 198 μL of 50% acetonitrile/50% water and 2 μL of 10 mM stock solution. Verapamil was use as positive control in the assay. Vials of cryopreserved hepatocytes were removed from storage and thawed in a 37° C. water bath with gentle shaking. Contents of the vial were poured into the 50 mL thawing medium conical tube. Vials were centrifuged at 100 g for 10 minutes at room temperature. Thawing medium was aspirated and hepatocytes were re-suspended with serum-free incubation medium to yield ˜1.5×10^6 cells/mL. Hepatocyte viability and density were counted using a Trypan Blue exclusion, and then cells were diluted with serum-free incubation medium to a working cell density of 0.5×10^6 viable cells/mL. Then, a portion of the hepatocytes at 0.5×10^6 viable cells/mL was boiled for 5 minutes prior to adding to the plate as negative control to eliminate the enzymatic activity so that little or no substrate turnover should be observed. The boiled hepatocytes were used to prepare negative samples. Aliquots of 198 μL hepatocytes were dispensed into each well of a 96-well non-coated plate. The plate was placed in the incubator on an orbital shaker at 500 rpm for approximately 10 minutes. Aliquots of 2 μL of the 100 μM test compound or positive control were added into respective wells of the non-coated 96-well plate to start the reaction. This assay was performed in duplicate. The plate was incubated in the incubator on an orbital shaker at 500 rpm for the designated time points. Twenty-five microliter of contents were transferred and mixed with 6 volumes (150 μL) of cold acetonitrile with IS (200 nM imipramine, 200 nM labetalol and 200 nM diclofenac) to terminate the reaction at time points of 0, 15, 30, 60, 90 and 120 minutes. Samples were centrifuged at 3,220 g for 25 minutes and aliquots of 150 μL of the supernatants were used for LC-MS/MS analysis. For data analysis, all calculations were carried out using Microsoft Excel. Peak areas were determined from extracted ion chromatograms. The in vitro half-life (t1/2) of parent compound was determined by regression analysis of the percent parent disappearance vs. time curve. The in vitro half-life (in vitro t1/2) was determined from the slope value: in vitro t1/2=0.693/k. […] Scaling factors for in vivo intrinsic clearance prediction using human hepatocytes are listed as: liver weight (g liver/kg body weight): 25.7; hepatocyte concentration (10^6 cells/g liver): 99; scaling factor: 2544.3.

[4] = Human hepatocyte clearance study; assay type: in vitro ADME; details: pooled cryopreserved human hepatocytes (suspension)
Procedure: as §1

[5] = system: kynurenine production in SKOV-3 cells; assay: Inhibition of kynurenine production in SKOV-3 cells; assay type: cell-based, human; details: Homo sapiens, SK-OV-3, FIG. 1
Procedure: The effect of compounds described herein on the inhibition of kynurenine production in HeLa cells (derived from human cervical cancer) was determined. HeLa cells were seeded into a 96-well culture plate at a density of 5×10^3 per well in RPMI1640/phenol red free media (from GIBCO) with 2 mM L-glutamine and 10% fetal bovine serum (FBS, from GIBCO) and grown overnight in a 37° C. incubator with 5% CO2. Twenty-four hours later, human IFN-γ (from GIBCO) (final concentration 50 ng/mL) and test compound solutions (serially diluted to different wells) were added to each well with a final volume of 200 uL per well. Forty-eight hours after incubation with compounds, 140 uL supernatant was taken from each well and was transferred to a new 96-well plate. Ten microliters of 6.1 N trichloroacetic acid were added into each well, mixed and incubated at 50° C. for 30 minutes. […] The yellow color derived from kynurenine was measured at 480 nm using a SPECTRAmax i3 reader. Each compound concentration was done in triplicates and compound IC50 value was calculated using nonlinear regression using Graphpad Prism 5.0.
The effect of compounds described herein on the inhibition of kynurenine production in SKOV-3 cells (derived from human ovarian cancer) was determined using a similar experimental procedure as described in Example A. Exemplary results are shown in FIG. 1. […]

IC50 [2]: 2.2 nM
Human Hepatocyte Remaining Percentage @ 120 min [3]: 79
CLint scaled at 1 µM ([4]; human, scaled up from in vitro t1/2, scaling factor 2544.3, read-out: Human Scale-up Clint): 10 mL/min/kg
hepatocyte CLint at 1 µM ([4]; pooled human hepatocytes, read-out: Human In vitro Clint (μL/min/10^6 cells)): 3 µL/min/1e6 cells
half-life at 1 µM ([4]; pooled human hepatocytes, read-out: Human In vitro T1/2): 7.05 h
IC50 [5]: 7.4 nM
SMILES: CC(C)CN(CC(C)C)c1ccc(C2(C(=O)O)CCCC2)cc1NC(=O)Nc1ccc(F)cc1F [Compound 9, 1-[4-[bis(2-methylpropyl)amino]-3-[[(2,4-difluorophenyl)carbamoyl]amino]phenyl]cyclopentane-1-carboxylic acid]
drop of plasma kynurenine compared to the LPS treatment alone ([1]; 12 hour time point): 72%
drop of plasma kynurenine compared to the LPS treatment alone ([1]; 24 hour time point): 85%
